Results taken from ChEMBL document CHEMBL1126394, “Synthesis of 1-(2-Indolyl)pyridinium salts: a prodrug approach to acetylcholinesterase inhibition” (Bioorg Med Chem Lett, 1992).

What was measured:
Acetylcholinesterase = Acetylcholinesterase (Electrophorus electricus, UniProt O42275); assay: Inhibitory activity against acetylcholinesterase as a prodrug was demonstarted
[1] = pKa value was determined; assay type: physicochemical

Sequence of Acetylcholinesterase (O42275 whole entry): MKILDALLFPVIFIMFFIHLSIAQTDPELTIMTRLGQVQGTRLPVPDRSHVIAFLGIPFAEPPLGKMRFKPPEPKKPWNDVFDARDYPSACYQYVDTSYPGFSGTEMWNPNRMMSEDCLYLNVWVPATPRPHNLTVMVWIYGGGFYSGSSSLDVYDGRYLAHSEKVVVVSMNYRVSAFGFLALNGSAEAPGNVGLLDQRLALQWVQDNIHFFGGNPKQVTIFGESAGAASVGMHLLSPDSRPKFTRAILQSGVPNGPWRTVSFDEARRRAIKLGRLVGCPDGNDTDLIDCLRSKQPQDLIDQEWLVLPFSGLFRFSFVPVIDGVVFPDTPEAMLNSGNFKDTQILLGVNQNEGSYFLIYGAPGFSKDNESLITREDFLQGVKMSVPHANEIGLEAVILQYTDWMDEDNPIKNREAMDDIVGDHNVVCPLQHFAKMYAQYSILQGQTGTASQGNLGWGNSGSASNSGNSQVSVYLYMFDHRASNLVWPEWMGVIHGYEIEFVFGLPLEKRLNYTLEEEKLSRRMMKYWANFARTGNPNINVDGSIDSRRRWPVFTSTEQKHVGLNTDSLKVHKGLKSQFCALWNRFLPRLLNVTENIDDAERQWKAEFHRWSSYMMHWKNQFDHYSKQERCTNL

With CC1c2cc(OC(=O)N(C)C)ccc2NC1[n+]1cccc(C(N)=O)c1 (configuration not stated) the IC50 (Acetylcholinesterase) was 50 µM.
CNC(=O)Oc1ccc2c(c1)[C@]1(C)CCN(C)[C@@H]1N2C [PHYSOSTIGMINE] gave a pKa [1] of 7.9.
